Reference: US6699686B1, “Modified nuclear glucocorticoid receptor, fusion protein, and DNA fragments coding for said receptor and said fusion protein” (Association pour le Development de la Recherche en …, priority 1996, dated 2004)

T1: wild-type hGR (Homo sapiens, UniProt P04150)
T1 construct: expressed in transfected cells
T1 sequence (P04150 1-777): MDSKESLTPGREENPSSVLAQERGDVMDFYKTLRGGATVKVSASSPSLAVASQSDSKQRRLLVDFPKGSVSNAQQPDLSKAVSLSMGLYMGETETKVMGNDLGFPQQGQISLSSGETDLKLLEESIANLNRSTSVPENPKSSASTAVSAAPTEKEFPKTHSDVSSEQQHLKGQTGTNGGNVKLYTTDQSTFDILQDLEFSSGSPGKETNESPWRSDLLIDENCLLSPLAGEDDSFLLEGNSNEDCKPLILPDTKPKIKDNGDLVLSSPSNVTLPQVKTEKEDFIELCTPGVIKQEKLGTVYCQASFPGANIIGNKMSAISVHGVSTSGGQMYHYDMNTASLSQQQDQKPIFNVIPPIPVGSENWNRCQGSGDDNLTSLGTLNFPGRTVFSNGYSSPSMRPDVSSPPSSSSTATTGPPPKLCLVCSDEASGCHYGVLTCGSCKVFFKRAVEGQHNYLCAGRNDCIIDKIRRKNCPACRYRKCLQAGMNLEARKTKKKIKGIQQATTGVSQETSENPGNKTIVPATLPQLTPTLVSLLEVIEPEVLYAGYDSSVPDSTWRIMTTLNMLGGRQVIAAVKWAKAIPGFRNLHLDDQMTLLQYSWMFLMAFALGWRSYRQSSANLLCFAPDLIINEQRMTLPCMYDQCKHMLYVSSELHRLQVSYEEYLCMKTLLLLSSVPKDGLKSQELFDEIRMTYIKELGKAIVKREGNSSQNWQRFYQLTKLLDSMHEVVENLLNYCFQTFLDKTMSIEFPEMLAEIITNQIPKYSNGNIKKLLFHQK

T2: hGR(I747/T) (Homo sapiens, UniProt P04150, I747T)
T2 construct: The same shift was observed as with the complete GR (I747/T) mutant; expressed in transfected cells
T2 sequence (P04150 1-777 I747T): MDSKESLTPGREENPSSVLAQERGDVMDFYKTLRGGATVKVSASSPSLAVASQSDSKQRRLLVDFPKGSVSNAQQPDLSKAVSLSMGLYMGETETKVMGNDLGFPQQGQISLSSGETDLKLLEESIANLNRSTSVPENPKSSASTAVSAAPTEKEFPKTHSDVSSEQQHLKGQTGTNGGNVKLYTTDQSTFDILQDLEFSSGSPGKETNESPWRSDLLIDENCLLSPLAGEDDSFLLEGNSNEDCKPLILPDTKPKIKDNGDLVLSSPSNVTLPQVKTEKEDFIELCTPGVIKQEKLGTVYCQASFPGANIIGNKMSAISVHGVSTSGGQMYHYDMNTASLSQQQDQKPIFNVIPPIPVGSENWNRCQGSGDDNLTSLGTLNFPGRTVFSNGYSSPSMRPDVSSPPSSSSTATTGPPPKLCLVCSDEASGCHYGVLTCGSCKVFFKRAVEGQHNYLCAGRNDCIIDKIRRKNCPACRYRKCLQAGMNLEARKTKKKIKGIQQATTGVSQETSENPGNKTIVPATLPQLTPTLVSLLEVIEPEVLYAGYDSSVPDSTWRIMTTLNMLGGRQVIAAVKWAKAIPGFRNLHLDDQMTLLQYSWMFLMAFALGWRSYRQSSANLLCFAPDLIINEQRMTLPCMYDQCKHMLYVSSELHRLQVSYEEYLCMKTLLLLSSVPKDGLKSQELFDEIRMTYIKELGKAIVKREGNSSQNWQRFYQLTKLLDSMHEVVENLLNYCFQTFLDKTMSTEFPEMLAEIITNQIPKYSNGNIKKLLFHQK

T3: GR(I747/T) glucocorticoid receptor mutant (Homo sapiens, UniProt P04150 SEQ:1-777)
T3 chain: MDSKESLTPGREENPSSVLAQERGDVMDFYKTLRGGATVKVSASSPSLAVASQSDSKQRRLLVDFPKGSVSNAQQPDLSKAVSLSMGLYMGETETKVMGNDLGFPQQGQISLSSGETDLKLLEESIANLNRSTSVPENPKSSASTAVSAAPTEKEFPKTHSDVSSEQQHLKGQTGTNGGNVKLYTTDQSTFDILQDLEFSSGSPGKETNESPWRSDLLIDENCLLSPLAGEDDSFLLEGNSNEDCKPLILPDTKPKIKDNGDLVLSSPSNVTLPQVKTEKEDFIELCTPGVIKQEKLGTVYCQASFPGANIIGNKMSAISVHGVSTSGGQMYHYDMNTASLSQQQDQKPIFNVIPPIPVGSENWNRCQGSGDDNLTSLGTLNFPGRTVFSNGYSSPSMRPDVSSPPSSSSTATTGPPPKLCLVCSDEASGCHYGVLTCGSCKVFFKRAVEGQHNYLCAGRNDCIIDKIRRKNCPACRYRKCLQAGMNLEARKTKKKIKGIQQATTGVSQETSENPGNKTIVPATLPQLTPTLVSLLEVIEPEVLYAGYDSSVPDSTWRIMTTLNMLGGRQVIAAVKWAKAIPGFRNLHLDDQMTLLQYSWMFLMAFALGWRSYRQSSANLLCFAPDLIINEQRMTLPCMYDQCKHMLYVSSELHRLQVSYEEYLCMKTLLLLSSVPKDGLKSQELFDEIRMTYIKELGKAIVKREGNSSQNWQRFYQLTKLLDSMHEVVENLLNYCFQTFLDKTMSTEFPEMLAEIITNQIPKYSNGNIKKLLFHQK


Legend:
wild-type hGR = molecular target: T1, wild-type hGR; test: Transcriptional activation of pTAT-tk-Luc luciferase reporter in transiently transfected CV-1 cells; type: cell-based; set-up: Luciferase activity % Wild type: concentration or dose not given beside the values; conditions: for Luciferase activity % Wild type: 24 h ligand, mean of three independent assays; for EC50: ligand concentration giving 50% of maximum transcriptional response
Protocol: (§1) The receptors were transiently expressed in GR-free CV-1 cells, conjointly with a luciferase reporter gene under the control of the tyrosine aminotransferase promoter (pTAT-tk-Luc).
(§2) After transfection, the cells were incubated for 24 hours with increasing concentrations of Dex, and they were then subjected to an assay of the β-galactosidase and luciferase activities, as described in “Materials and Methods”. The luciferase activity was normalized with the β-galactosidase activity, and the value obtained in the absence of ligand was subtracted for each point. The results were expressed as a percentage of the maximum luciferase activity obtained for each receptor. Each point is the mean±standard deviation of the mean of four separate determinations carried out in duplicate. […] The [^3H] steroid attached was measured after treatment with dextran-coated charcoal. The results presented are those for a single assay carried out in duplicate and representative of three separate assays.
(§3) Co-transfections were carried out and dose-response curves were constructed as described in FIG. 2. […] The assays of luciferase and β-galactosidase activity were carried out as described in “Materials and Methods”. The mean values of three independent assays are given in this table. nm=not measurable.
(§4) The CV-1 and Cos-7 cells were cultured in Dulbeco's modified Eagle's medium (DMEM) containing 10% (v/v) of fetal calf serum (FCS) (Gibco, Grand Island, N.Y.), in a humidified atmosphere containing 5% CO2. The HeLa cells were cultured under the same conditions. Transient transfections were carried out in 6-well multiplates according to the calcium phosphate procedure already described (42). A reference recombinant plasmid, pCMV-βgal, expressing bacterial β-galactosidase, was transfected conjointly with the receptor expression vector and the corresponding reporter gene so as to correct possible variations in he transfection efficiency. The precipitate was removed by washing after 24 hours, and the cells were kept in DMEX without FCS but containing hormone. After another 24 hours, the cells were rinsed and lysed for 15 minutes with 0.3 ml of lysis buffer [25 mM Tris.phosphate, pH 7.8, 8 mM […], 1% Triton X100, 10% glycerol (48)]. The corresponding luciferase activity as determined on an aliquot fraction (0.1 ml), by evaluation of the luminescence peak (for an integration time of 15 seconds), after injection of 0.1 ml of 1 mM luciferin in an LKB luminometer. The β-galactosidase was determined by the method modified by Bocquel et al. (49), for controlling the efficiency of each transfection.
(§5) The reporter gene pTAT-tk-Luc was provided by D. Gagne and was constructed as follows: an intermediate plasmid pTAT was first generated by insertion of the 966 bp EcoRI-BamHI segment obtained from pKT531 [offered freely by T. Grande (50)] into the corresponding sites of the vector pUC19 (Pharmacia). The fragment containing the sequence coding for the firefly luciferase and the thymidine kinase (tk) minimal promoter obtained from the Herpes simplex virus was isolated in the form of a BamHI fragment from pvit-tk-Luc (51) and inserted, downstream of the TAT promoter, into the corresponding site of pTAT. The reporter plasmid pGRE-tk-Luc was constructed by ligation of the fragment of HindIII-BglII digestion of pGRE-tk-CAT (52), which contains a synthetic GRE (AGAACAcagTGTTCT) upstream of the tk minimal promoter, into the HindIII-BglII sites of pLuc (53). The reporter gene p(17M)5-βGlob-Luc has been previously described (54). The reporter plasmid p(17M)5-tata-Luc was constructed from the plasmid p(17M)5-tata-CAT (55) by digestion with XhoI-BamHI and isolation of the fragment containing (17M5)-tata. This fragment was then inserted into the vector pGL2 (Promega) digested with the same restriction enzymes.

hGR(I747/T) = molecular target: T2, hGR(I747/T); test: as above; type: cell-based; conditions: for transactivation by the I747/T mutant receptor compared with wild-type receptor / Luciferase activity % hGR (I747/T) / EC50: CV-1 cells, pTAT-tk-Luc; for Luciferase activity % hGR (I747/T): 24 h ligand, mean of three independent assays; for EC50: ligand concentration giving 50% of maximum transcriptional response; for % EC50: EC50 hGR(I747/T) relative to EC50 wild type
Protocol: as §1, §2, §3, §4, §5

[1] = test system: Gal4(1-147)-GR(I747/T)(500-777) I747T (Saccharomyces cerevisiae / Homo sapiens); test: cell_activity; conditions: EC50 is for dexamethasone; p(17M)5-βGlob-Luc in HeLa cells; 2e-7 M with tata-Luc
[2] = test system: Gal4(1-147)-GR(500-777) (Saccharomyces cerevisiae / Homo sapiens); test: cell_activity; conditions: EC50 is for dexamethasone; p(17M)5-βGlob-Luc in HeLa cells; 2e-9 M with tata-Luc
[3] = molecular target: GR(I747/T) glucocorticoid receptor mutant (Homo sapiens) (UniProt P04150); test: cell_activity; conditions: EC50 is for dexamethasone; luciferase reporter in CV-1 cells; cortisol 15% and corticosterone/aldosterone 0% activity
[4] = molecular target: wild-type glucocorticoid receptor (hGR) T747I (reversion to wild type) (Homo sapiens) (UniProt P04150); test: cell_activity; conditions: EC50 is for dexamethasone; luciferase reporter in CV-1 cells
[5] = molecular target: T3, GR(I747/T) glucocorticoid receptor …; test: cell_activity; EC50 is for dexamethasone; luciferase reporter in CV-1 cells
Protocol: The $EC50$ values were determined graphically.
The HeLa cells were cultured under the same conditions.

| Luciferase activity % Wild type (wild-type hGR) | EC50 (wild-type hGR) | transactivation by the I747/T mutant receptor compared with wild-type receptor (hGR(I747/T)) | Luciferase activity % hGR (I747/T) (hGR(I747/T)) | EC50 (hGR(I747/T)) | % EC50 (hGR(I747/T)) | Molecule | EC50 [1] | EC50 [2] | EC50 [3] | EC50 [4] | EC50 [5] |
| --- | --- | --- | --- | --- | --- | --- | --- | --- | --- | --- | --- |
| 75% | 0.15 nM | a higher activity | 100% | 3 nM | 20% | CC1(C)O[C@@H]2C[C@H]3[C@@H]4C[C@H](F)C5=CC(=O)C=C[C@]5(C)[C@@]4(F)[C@@H](O)C[C@]3(C)[C@]2(C(=O)CO)O1 [Fluocinolone, fluocinolone acetonide] |  |  |  |  |  |
| 98% | 0.5 nM |  | 102% | 20 nM |  | CC1(C)O[C@@H]2C[C@H]3[C@@H]4CCC5=CC(=O)C=C[C@]5(C)[C@@]4(F)[C@@H](O)C[C@]3(C)[C@]2(C(=O)CO)O1 [TA, triamcinolone acetonide] |  |  |  |  |  |
|  |  |  |  |  |  | (17M)5 Gal4 response element | 150 nM | 1.7 nM |  |  |  |
|  |  |  |  |  |  | TAT promoter (pTAT-tk-Luc), two GREs |  |  | 40 nM | 0.4 nM |  |
| 100% | 0.1 nM | a higher activity | 180% | 2 nM | 20% | bimedrazol |  |  |  |  |  |
|  |  |  |  |  |  | synthetic palindromic GRE (pGRE-tk-Luc) (dsDNA) DNA 1: AGAACACAGTGTTCT DNA 2: AGAACACTGTGTTCT |  |  |  |  | 20 nM |

| Molecule | Luciferase activity % Wild type (wild-type hGR) | EC50 (wild-type hGR) | transactivation by the I747/T mutant receptor compared with wild-type receptor (hGR(I747/T)) | Luciferase activity % hGR (I747/T) (hGR(I747/T)) | EC50 (hGR(I747/T)) | % EC50 (hGR(I747/T)) | EC50 [1] | EC50 [2] | EC50 [3] | EC50 [4] | EC50 [5] |
| --- | --- | --- | --- | --- | --- | --- | --- | --- | --- | --- | --- |
| CC#C[C@]1(O)CC[C@H]2[C@@H]3C=C(C)C4=CC(=O)C=C[C@]4(C)[C@H]3[C@@H](O)C[C@@]21C [RU28362] | 90% | 0.3 nM | the same transactivation as with the wild-type receptor | 88% | 7 nM | 23% |  |  |  |  |  |
